Experiment: xn = mol fraction of the nth substance listed
Details: Liquid, Vibrating tube method

CCCCCCCCCCCCCCCC [hexadecane] + CCCCCCCCCC
mass density [kg/m3]
Details	1000 kPa	2000 kPa	3000 kPa	4000 kPa	5000 kPa	6000 kPa	7000 kPa	8000 kPa	9000 kPa	10000 kPa
295 K, x2 = 0.25	760.6	761.3	762	762.6	763.3	764	764.6	765.3	765.9	766.6
295 K, x2 = 0.75	739.6	740.4	741.1	741.8	742.5	743.3	744	744.7	745.4	746.2
295.3 K, x2 = 0.5	751	751.7	752.4	753.1	753.8	754.5	755.1	755.8	756.5	757.2
